# Results published in patent US20240366589A1, “NHE3-BINDING COMPOUNDS AND METHODS FOR INHIBITING PHOSPHATE TRANSPORT” (Ardelyx, Inc., priority 2013, published 2024).
# Experiments:
# [1] = test system: absorption of sodium from the intestinal lumen; assay: Inhibition of intestinal sodium absorption: urinary sodium (uNa) 16 h after single oral dose in rats; format: in vivo, rat; settings: oral gavage, 16 h post-dose
# Description: (§1) Inhibition of intestinal sodium and phosphate absorption. Urinary sodium concentration and fecal form were measured to assess the ability of selected example compounds to inhibit the absorption of sodium from the intestinal lumen. Eight-week old Sprague-Dawley rats were purchased from Charles River Laboratories (Hollister, CA), were housed 2 per cage, and acclimated for at least 3 days before study initiation. Animals were fed Harlan Teklad Global 2018 rodent chow (Indianapolis, IN) and water ad libitum throughout the study and maintained in a standard light/dark cycle of 6 AM to 6 PM. On the day of the study, between 4 PM and 5 PM, a group of rats (n=6) were dosed via oral gavage with test compound, or a pharmaceutically acceptable salt thereof, or vehicle (water) at a volume of 10 mL/kg.
# (§2) After dose administration animals were placed in individual metabolic cages where they were also fed the same chow in meal form and watered ad libitum. At 16 h post-dose, the urine samples were collected and fecal form was assessed by two independent observations. Fecal forms were scored according to a common scale associated with increasing fecal water to the wettest observation in the cage's collection funnel (1, normal pellet; 2, pellet adhering to sides of collection funnel due to moisture; 3, loss of normal pellet shape; 4, complete loss of shape with a blotting pattern; 5, liquid fecal streams evident). A rat's fecal form score (FFS) was determined by averaging both observational scores for all rats within a group (n=6). The vehicle group average was 1.
# For urine samples, the volumes were determined gravimetrically and centrifuged at 3,600×g. The supernatants were diluted 100-fold in deionized Milli-Q water then filtered through a 0.2 μm GHP Pall AcroPrep filter plate (Pall Life Sciences, Ann Arbor, MI) prior to analysis by ion chromatography. Ten microliters of each filtered extract was injected onto a Dionex ICS-3000 ion chromatograph system (Dionex, Sunnyvale, CA). Cations were separated by an isocratic method using 25 mM methanesulfonic acid as the eluent on an IonPac CS12A 2 mm i.d.×250 mm, 8 μm particle size cation exchange column (Dionex). Sodium was quantified using standards prepared from a cation standard mix containing Li^+, Na^+, NH4^+, K^+, Mg^2+, and Ca^2+ (Dionex). The mean mass of sodium urinated for every group in the 16 h period was determined with the vehicle group usually urinating approximately 21 mg sodium. The urine Na (uNa) for rats in the test groups were expressed as a percentage of the vehicle mean and the means were compared to that of the vehicle group by utilizing a one-way analysis of variance coupled with a Dunnett's post hoc test.
# Further experiments were performed to test the compounds under the persistent and prompt conditions described above, and to test their effects on urinary excretion of sodium in rats. The latter was performed by orally dosing the compounds in rats (single dose) and measuring urinary Na excretion (as a % of vehicle). The results are indicated as percentage of urinary sodium (UNa %); low values indicate relatively active compounds.
# [2] = test system: phosphorus and calcium levels in the urine of rats; assay: Urinary excretion of phosphate and calcium in rats (16 h overnight urine); format: in vivo, rat; settings: rats, oral gavage, 16 h post-dose
# Rat NHE3 = target: T1, Rat NHE3 (Rattus norvegicus, UniProt P26433); assay: Cell-based NHE3 activity under prompt conditions (OK cells, BCECF pH recovery), rat NHE3; settings: prompt conditions
# T1 construct: expressed in transfected cells; host or cells: Opossum kidney (OK) cells (ATCC), electroporation
# Description: (§3) Cell-based activity under Prompt Conditions. Rat or human NHE3-mediated Na^+-dependent H antiport was measured using a modification of the pH sensitive dye method originally reported by Paradiso (PNAS USA. 81:7436-7440, 1984). Opossum kidney (OK) cells were obtained from the ATCC and propagated per their instructions. The rat NHE3 gene (GenBank M85300) or the human NHE3 gene (GenBank NM_004174.1) was introduced into OK cells via electroporation, and cells were seeded into 96 well plates and grown overnight. Medium was aspirated from the wells, cells were washed twice with NaCl-HEPES buffer (100 mM NaCl, 50 mM HEPES, 10 mM glucose, 5 mM KCl, 2 mM CaCl2, 1 mM MgCl2, pH 7.4), then incubated for 30 min at room temperature with NH4Cl-HEPES buffer (20 mM NH4Cl, 80 mM NaCl, 50 mM HEPES, 5 mM KCl, 2 mM CaCl2, 1 mM MgCl2, pH 7.4) containing 5 μM bis(acetoxymethyl) 3,3′-(3′,6′-bis(acetoxymethoxy)-5-((acetoxymethoxy)carbonyl)-3-oxo-3H-spiro[isobenzofuran-1,9′-xanthene]-2′,7′-diyl)dipropanoate (BCECF-AM).
# (§4) Cells were washed twice with Ammonium free, Na^+-free HEPES (100 mM choline, 50 mM HEPES, 10 mM glucose, 5 mM KCl, 2 mM CaCl2, 1 mM MgCl2, pH 7.4) and incubated in the same buffer for 10 minutes at room temperature to lower intracellular pH. […] Initial rates were plotted as the average 2 or more replicates, and pIC50 values were estimated using GraphPad Prism.
# (§5) Cell-based activity of NHE3 Activity under ‘Prompt’ Conditions. This assay was performed as described in Example 1 (supra).
# Human NHE3 = target: T2, Human NHE3 (Homo sapiens, UniProt P48764); assay: Cell-based NHE3 activity under prompt conditions (OK cells, BCECF pH recovery), human NHE3; settings: prompt conditions
# T2 construct: expressed in transfected cells; host or cells: Opossum kidney (OK) cells (ATCC), electroporation
# T2 sequence (P48764 26-834): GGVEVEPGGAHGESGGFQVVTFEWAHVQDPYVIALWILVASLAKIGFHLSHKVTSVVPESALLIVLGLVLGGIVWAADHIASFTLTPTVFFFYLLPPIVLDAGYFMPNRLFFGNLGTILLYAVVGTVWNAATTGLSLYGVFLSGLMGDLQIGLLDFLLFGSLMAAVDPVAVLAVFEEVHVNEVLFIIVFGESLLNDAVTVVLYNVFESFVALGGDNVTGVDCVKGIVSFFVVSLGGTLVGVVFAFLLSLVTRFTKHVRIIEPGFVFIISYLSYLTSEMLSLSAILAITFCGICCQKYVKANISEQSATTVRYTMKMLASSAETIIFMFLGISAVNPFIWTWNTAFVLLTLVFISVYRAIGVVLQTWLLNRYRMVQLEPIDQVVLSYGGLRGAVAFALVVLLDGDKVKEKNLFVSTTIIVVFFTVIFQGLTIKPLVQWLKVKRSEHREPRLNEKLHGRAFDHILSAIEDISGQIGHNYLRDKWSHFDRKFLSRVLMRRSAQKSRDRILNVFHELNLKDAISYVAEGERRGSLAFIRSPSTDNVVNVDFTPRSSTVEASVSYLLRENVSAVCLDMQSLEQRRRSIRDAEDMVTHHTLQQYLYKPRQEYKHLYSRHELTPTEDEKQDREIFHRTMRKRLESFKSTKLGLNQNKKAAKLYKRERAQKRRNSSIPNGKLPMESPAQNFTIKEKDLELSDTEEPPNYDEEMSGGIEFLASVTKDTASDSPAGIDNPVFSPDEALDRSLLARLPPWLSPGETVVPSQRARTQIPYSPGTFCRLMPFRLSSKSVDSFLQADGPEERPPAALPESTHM
# Description: as §3, §4, §5
# [3] = test system: absorption of sodium from the intestinal lumen; assay: Fecal form score (FFS) 16 h after oral dose in rats; format: in vivo, rat; settings: oral gavage, 16 h post-dose, scale 1-5
# Description: as §1, §2
# T1 sequence (P26433 29-831): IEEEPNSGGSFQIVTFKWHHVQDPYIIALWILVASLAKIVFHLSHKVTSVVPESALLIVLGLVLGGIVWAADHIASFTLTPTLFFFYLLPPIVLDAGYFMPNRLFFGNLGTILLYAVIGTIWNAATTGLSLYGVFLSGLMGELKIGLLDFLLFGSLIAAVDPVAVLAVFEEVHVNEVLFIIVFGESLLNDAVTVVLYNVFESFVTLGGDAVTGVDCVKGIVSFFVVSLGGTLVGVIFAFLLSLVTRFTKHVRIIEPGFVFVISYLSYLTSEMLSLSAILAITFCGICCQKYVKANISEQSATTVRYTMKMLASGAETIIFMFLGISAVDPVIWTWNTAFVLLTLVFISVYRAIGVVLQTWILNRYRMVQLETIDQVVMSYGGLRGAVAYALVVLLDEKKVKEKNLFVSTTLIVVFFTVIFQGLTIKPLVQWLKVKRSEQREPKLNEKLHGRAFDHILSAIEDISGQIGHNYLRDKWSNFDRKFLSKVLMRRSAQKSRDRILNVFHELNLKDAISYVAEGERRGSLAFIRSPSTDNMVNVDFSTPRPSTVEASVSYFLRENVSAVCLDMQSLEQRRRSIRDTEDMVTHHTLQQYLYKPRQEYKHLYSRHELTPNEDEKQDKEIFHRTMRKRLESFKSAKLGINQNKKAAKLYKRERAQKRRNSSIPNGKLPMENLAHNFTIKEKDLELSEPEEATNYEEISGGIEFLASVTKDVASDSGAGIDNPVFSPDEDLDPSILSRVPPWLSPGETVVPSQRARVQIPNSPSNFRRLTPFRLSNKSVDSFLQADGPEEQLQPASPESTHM
structure (smiles),measurement,setting,value
N=C(N)Nc1nc(-c2ccc(OCCOCCOCCOCCNC(=O)NCCOCCOCCNC(=O)NCCCCNC(=O)NCCOCCOCCNC(=O)NCCOCCOCCOCCOc3ccc(-c4nc(NC(=N)N)nc5ccc(Cl)cc45)cc3)cc2)c2cc(Cl)ccc2n1 [compound 36],Urine Na % of control,[1]; dose 10 mg/kg,85%
same,Urine P % of control,[2]; dose 10 mg/kg,86%
same,Prompt Rat NHE3 pIC50,Rat NHE3,7.60
same,Prompt Human NHE3 pIC50,Human NHE3,8.00
same,Fecal Form Score average,[3]; dose 10 mg/kg,1
O=C(NCCCCNC(=O)NCCOCCOCCNS(=O)(=O)c1ccc(O[C@H]2c3cc(Cl)cc(Cl)c3C[C@@H]2N2CC[C@@H](O)C2)cc1)NCCOCCOCCNS(=O)(=O)c1ccc(O[C@H]2c3cc(Cl)cc(Cl)c3C[C@@H]2N2CC[C@@H](O)C2)cc1 [compound 87],Urine Na % of control,[1]; dose 3 mg/kg,54%
same,Urine P % of control,[2]; dose 3 mg/kg,29%
same,Prompt Rat NHE3 pIC50,Rat NHE3,<5.00
same,Prompt Human NHE3 pIC50,Human NHE3,8.20
same,Fecal Form Score average,[3]; dose 3 mg/kg,1
N=C(N)Nc1nc(-c2ccc(OCCOCCOCCOCCN)cc2)c2cc(Cl)ccc2n1 [compound 37],Urine Na % of control,[1]; dose 10 mg/kg,63%
same,Urine P % of control,[2]; dose 10 mg/kg,101%
same,Prompt Rat NHE3 pIC50,Rat NHE3,7.50
same,Prompt Human NHE3 pIC50,Human NHE3,7.50
same,Fecal Form Score average,[3]; dose 10 mg/kg,1
CN1Cc2c(Cl)cc(Cl)cc2[C@@H](c2cccc(S(=O)(=O)NCCOCCOCCNC(=O)NCCCCNC(=O)NCCOCCOCCNS(=O)(=O)c3cccc([C@H]4CN(C)Cc5c(Cl)cc(Cl)cc54)c3)c2)C1 [compound 40],Urine Na % of control,[1]; dose 1 mg/kg,80%
same,Urine Na % of control,[1]; dose 10 mg/kg,90%
same,Urine P % of control,[2]; dose 1 mg/kg,149%
same,Urine P % of control,[2]; dose 10 mg/kg,128%
same,Prompt Rat NHE3 pIC50,Rat NHE3,<5.00
same,Prompt Human NHE3 pIC50,Human NHE3,<5.00
same,Fecal Form Score average,[3]; dose 1 mg/kg,1
same,Fecal Form Score average,[3]; dose 10 mg/kg,1
N=C(N)Nc1nc(-c2ccc(OCCOCCOCCOCCNC(=O)NCCOCCOCCNC(=O)CN(CCN(CC(=O)O)CC(=O)NCCOCCOCCNC(=O)NCCOCCOCCOCCOc3ccc(-c4nc(NC(=N)N)nc5ccc(Cl)cc45)cc3)CC(=O)O)cc2)c2cc(Cl)ccc2n1 [compound 35],Urine Na % of control,[1]; dose 10 mg/kg,65%
same,Urine P % of control,[2]; dose 10 mg/kg,57%
same,Prompt Rat NHE3 pIC50,Rat NHE3,8.00
same,Prompt Human NHE3 pIC50,Human NHE3,8.30
same,Fecal Form Score average,[3]; dose 10 mg/kg,1
C/C(=C\c1cc(F)c(Oc2ccc(S(=O)(=O)NCCOCCOCCOCCNC(=O)[C@H](O)[C@@H](O)C(=O)NCCOCCOCCOCCNS(=O)(=O)c3ccc(Oc4c(F)cc(/C=C(\C)C(=O)N=C(N)N)cc4F)cc3)cc2)c(F)c1)C(=O)N=C(N)N [compound 5],Urine Na % of control,[1]; dose 10 mg/kg,51%
same,Urine Na % of control,[1]; dose 30 mg/kg,23%
same,Urine P % of control,[2]; dose 10 mg/kg,65%
same,Urine P % of control,[2]; dose 30 mg/kg,105%
same,Prompt Rat NHE3 pIC50,Rat NHE3,6.90
same,Prompt Human NHE3 pIC50,Human NHE3,7.85
same,Fecal Form Score average,[3]; dose 10 mg/kg,1
same,Fecal Form Score average,[3]; dose 30 mg/kg,2
C/C(=C\c1cc(F)c(Oc2ccc(S(=O)(=O)NCCOCCOCCOCCNC(=O)N(C)CCCCN(C)C(=O)NCCOCCOCCOCCNS(=O)(=O)c3ccc(Oc4c(F)cc(/C=C(\C)C(=O)N=C(N)N)cc4F)cc3)cc2)c(F)c1)C(=O)N=C(N)N [compound 30],Urine Na % of control,[1]; dose 10 mg/kg,100%
same,Urine P % of control,[2]; dose 10 mg/kg,104%
same,Prompt Rat NHE3 pIC50,Rat NHE3,7.80
same,Prompt Human NHE3 pIC50,Human NHE3,8.40
same,Fecal Form Score average,[3]; dose 10 mg/kg,1
CN(C)[C@H]1Cc2c(Cl)cc(Cl)cc2[C@@H]1Oc1ccc(S(=O)(=O)NCCOCCOCCNC(=O)COCC(=O)NCCOCCOCCNS(=O)(=O)c2ccc(O[C@H]3c4cc(Cl)cc(Cl)c4C[C@@H]3N(C)C)cc2)cc1 [compound 149],Urine Na % of control,[1]; dose 1 mg/kg,54%
same,Urine Na % of control,[1]; dose 2 mg/kg,53%
same,Urine Na % of control,[1]; dose 3 mg/kg,46%
same,Urine P % of control,[2]; dose 1 mg/kg,122%
same,Urine P % of control,[2]; dose 2 mg/kg,69%
same,Urine P % of control,[2]; dose 3 mg/kg,115%
same,Prompt Rat NHE3 pIC50,Rat NHE3,8.10
same,Prompt Human NHE3 pIC50,Human NHE3,8.00
same,Fecal Form Score average,[3]; dose 1 mg/kg,1
same,Fecal Form Score average,[3]; dose 2 mg/kg,2
same,Fecal Form Score average,[3]; dose 3 mg/kg,1
CCC(=O)NC(CCC(=O)NCCOCCOCCOCCNS(=O)(=O)c1cccc([C@@H]2CN(C)Cc3c(Cl)cc(Cl)cc32)c1)(CCC(=O)NCCOCCOCCOCCNS(=O)(=O)c1cccc([C@@H]2CN(C)Cc3c(Cl)cc(Cl)cc32)c1)CCC(=O)NCCOCCOCCOCCNS(=O)(=O)c1cccc([C@@H]2CN(C)Cc3c(Cl)cc(Cl)cc32)c1 [compound 89],Urine Na % of control,[1]; dose 10 mg/kg,49%
same,Urine P % of control,[2]; dose 10 mg/kg,117%
same,Prompt Rat NHE3 pIC50,Rat NHE3,7.10
same,Prompt Human NHE3 pIC50,Human NHE3,7.90
same,Fecal Form Score average,[3]; dose 10 mg/kg,3
CN1Cc2c(Cl)cc(Cl)cc2[C@H](c2cccc(S(=O)(=O)NCCOCCOCCOCCNC(=O)CN3CCN(CC(=O)NCCOCCOCCOCCNS(=O)(=O)c4cccc([C@@H]5CN(C)Cc6c(Cl)cc(Cl)cc65)c4)CCN(CC(=O)NCCOCCOCCOCCNS(=O)(=O)c4cccc([C@@H]5CN(C)Cc6c(Cl)cc(Cl)cc65)c4)CCN(CC(=O)NCCOCCOCCOCCNS(=O)(=O)c4cccc([C@@H]5CN(C)Cc6c(Cl)cc(Cl)cc65)c4)CC3)c2)C1 [compound 58],Urine Na % of control,[1]; dose 10 mg/kg,82%
same,Urine P % of control,[2]; dose 10 mg/kg,68%
same,Prompt Rat NHE3 pIC50,Rat NHE3,6.30
same,Prompt Human NHE3 pIC50,Human NHE3,7.30
same,Fecal Form Score average,[3]; dose 10 mg/kg,1
